In the supplement of paper PMC8882468:

What was measured:
Assay in all cases: CTG-3D luminescence at 96 h relative to day-0 seeding control (ratio to day 0); higher = more growth / less cytotoxicity
[1] = tested on: HCI-015 (organoid from a triple-negative breast cancer xenograft)
Description: (§1)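 PDxO 3D drug screen (set 2), 8-point dose, 96 h; CTG-3D luminescence normalised to day-0 seeding control (mean of 4 wells each).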

[2] = tested on: HCI-024 (organoid from a breast cancer xenograft)
Description: as §1

[3] = tested on: HCI-025 (organoid from a breast cancer xenograft)
Description: as §1

[4] = tested on: HCI-016 (organoid from a triple-negative breast cancer xenograft)
Description: as §1

[5] = tested on: HCI-019 (organoid from a triple-negative breast cancer xenograft)
Description: as §1

[6] = tested on: HCI-003.E2 (organoid from an ER-positive breast cancer xenograft)
Description: as §1

CC/C(=C(\c1ccc(O)cc1)c1ccc(OCCN(C)C)cc1)c1ccccc1 [4-hydroxytamoxifen]
CTG-3D luminescence at 96 h
Conditions	12.5 pM	0.00025 µM	0.005 µM	0.1 µM	1 µM	10 µM	100 µM	625 fM
[1], days in culture: 333	1.04	1.94	1.26	1.29	1.39	0.469	0.0144	2.19
[1], days in culture: 355	3.76	3.54	1.5	2.75	0.935	1.57	0.00605	1.84
[1], days in culture: 369	2.01	1.59	2.11	1.32	1.19	0.943	0.00584	1.66
[2], days in culture: 202	1.48	1.18	1.56	1.67	0.953	1.09	0.00631	1.74
[2], days in culture: 231	1.05	1.07	1.18	0.978	0.782	0.83	0.00137	1.07
[2], days in culture: 254	1.94	1.16	1.05	1.38	1.28	0.958	0.00459	0.909
[3], days in culture: 175	1.51	1.63	1.71	2.13	2.44	1.28	0.0136	1.6
[3], days in culture: 189	2.13	1.92	1.2	1.78	1.33	0.709	0.00308	2.68
[3], days in culture: 212	1.57	0.956	1.22	1.48	0.341	1.41	0.0176	1.14
[3], days in culture: 224	2.08	1.8	1.69	1.65	2.16	0.525	0.00432	1.85
[4], days in culture: 305	2.77	4.59	2.65	4.18	2.47	1.67	0.0261	4.99
[4], days in culture: 327	0.944	0.968	2.39	2.26	1.5	1.58	0.0115	1.27
[4], days in culture: 341	2.5	1.22	2.22	1.54	1.41	1.48	0.00227	2.1
[4], days in culture: 397	1.82	2.24	1.56	1.83	1.91	2.17	0.0134	2
[5], days in culture: 173	1.97	1.2	1.04	1.81	1.85	0.914	0.0117	1.34
[5], days in culture: 194	1.24	0.815	2.23	0.96	2.13	0.944	0.00421	2.45
[5], days in culture: 215	2.34	1.56	1.23	1.28	1.14	0.473	0.00476	1.5

[6]
Conditions	CTG-3D luminescence at 96 h
12.5 pM	2.27
0.00025 µM	2.32
0.005 µM	2.33
0.1 µM	2.5
1 µM	1.94
10 µM	1.18
100 µM	0.0128
625 fM	2.7
